Reference: patent EP4603105A1, “PHARMACEUTICAL COMPOSITION CONTAINING CYCLIC COMPOUND HAVING SELECTIVE KRAS INHIBITORY EFFECT AGAINST HRAS AND NRAS” (CHUGAI SEIYAKU KABUSHIKI KAISHA, priority 2022, dated 2024)

How the values were obtained:
[1] = target: GDP-bound KRAS wild-type protein (Homo sapiens, UniProt P01116); assay: Binding to KRAS by surface plasmon resonance (SPR), dissociation constant KD
Procedure, shortened: (§1)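 GDP-bound biotin-Avi RAS captured at ~100–300 RU, 30°C, pH 7.4 HBS containing 10 µM GDP, 10 mM MgCl2, 1 mM DTT, 0.01% Tween 20 and 4% DMSO. KD by 1:1 fitting.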

[2] = target: GDP-bound NRAS wild-type protein (Homo sapiens, UniProt P01111); assay: Binding to NRAS by surface plasmon resonance (SPR), KD and KD ratio to KRAS
GDP-bound NRAS wild-type protein, sequence (P01111 whole entry): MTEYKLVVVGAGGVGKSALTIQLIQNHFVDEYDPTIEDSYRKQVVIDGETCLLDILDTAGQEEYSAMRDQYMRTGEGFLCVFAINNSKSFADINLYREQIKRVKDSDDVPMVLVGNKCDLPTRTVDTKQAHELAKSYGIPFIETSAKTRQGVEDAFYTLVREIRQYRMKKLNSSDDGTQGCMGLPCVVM
Procedure, shortened: as §1

[3] = system: human lung cancer strain NCI-H441; format: cell-based
Procedure, shortened: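 Readout: […] after the ATP-based reagent. Compound: serial dilutions in dimethyl sulfoxide.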

HRAS wild-type protein = HRAS wild-type protein (Homo sapiens, UniProt P01112); assay: Binding to HRAS by surface plasmon resonance (SPR), KD and KD ratio to KRAS
HRAS wild-type protein, sequence (P01112 whole entry): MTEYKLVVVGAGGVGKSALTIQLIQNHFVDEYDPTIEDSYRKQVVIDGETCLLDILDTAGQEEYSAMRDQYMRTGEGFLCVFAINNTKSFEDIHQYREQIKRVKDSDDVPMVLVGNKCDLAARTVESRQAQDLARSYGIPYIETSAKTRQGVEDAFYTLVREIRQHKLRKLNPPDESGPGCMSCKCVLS
Procedure, shortened: as §1

[4] = ratio of KD for GDP-bound NRAS wild-type protein to KD for KRAS
[5] = ratio of KD for HRAS wild-type protein to KD for KRAS
[6] = Single Cycle Kinetics, 1:1 binding model
[7] = ratio of KD value for GDP-bound NRAS wild-type protein to KD value for KRAS (SPR)
[8] = ratio of KD value for HRAS wild-type protein to KD value for KRAS (SPR)
[9] = ratio of the KD value with respect to GDP-bound NRAS wild-type protein to the KD value with respect to KRAS
[10] = ratio of the KD value with respect to HRAS wild-type protein to the KD value with respect to KRAS

GDP-bound KRAS wild-type protein, sequence (P01116 1-188 isoform P01116-2): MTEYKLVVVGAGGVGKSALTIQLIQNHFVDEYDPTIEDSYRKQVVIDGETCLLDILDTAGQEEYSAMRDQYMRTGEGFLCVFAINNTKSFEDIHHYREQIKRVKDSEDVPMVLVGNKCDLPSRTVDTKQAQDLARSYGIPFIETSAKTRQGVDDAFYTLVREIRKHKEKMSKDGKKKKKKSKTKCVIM

Structure (SMILES)	IC50 [3] [nM]	Kd [1, 6] [nM]	NRAS /KRAS [2, 4]	HRAS /KRAS (HRAS wild-type protein; [5])	NRAS /KRAS [2, 9]	HRAS /KRAS (HRAS wild-type protein; [10])	also measured
CCCN1C(=O)C[C@@H](C(=O)N(C)C)N(C)C(=O)[C@H](C2CCCC2)N(C)C(=O)C2(CCC2)NC(=O)[C@@H]2C[C@@H](OCC)CN2C(=O)[C@H](CCc2cc(F)c(C(F)(F)F)c(F)c2)NC(=O)CN(C)C(=O)[C@H](Cc2ccc(C(F)(F)F)cc2)N2CC/C=C\C[C@@H](C2=O)N(C)C(=O)CN(C)C(=O)[C@H]([C@@H](C)CC)NC(=O)[C@@H]1CC(C)C [PP1825]	8	0.14					NRAS /KRAS [2, 7]: A (a compound having 10 or more and less than 20 is denoted as A); HRAS /KRAS (HRAS wild-type protein; [8]): A (a compound having 10 or more and less than 20 is denoted as A)
CCO[C@@H]1C[C@H]2C(=O)NC3(CC(C)(C)C3)C(=O)N(C)[C@@H](C3CCCC3)C(=O)N(C)[C@H](C(=O)N(C)CC)CC(=O)N(C)[C@@H]([C@@H](C)OC)C(=O)N[C@@H]([C@@H](C)CC)C(=O)N3CCC[C@H]3C(=O)N(C)[C@H]3C/C=C\CCN(C3=O)[C@@H](Cc3ccc(C)cc3)C(=O)N(C)CC(=O)N[C@@H](CCc3ccc(C(F)(F)F)c(Cl)c3)C(=O)N2C1 [PP3192]	41.3		A (a compound having 10 or more and less than 20 is denoted as A)	A (a compound having 10 or more and less than 20 is denoted as A)			Kd ([1]; 1:1 binding model): 0.96 nM
CCO[C@@H]1C[C@H]2C(=O)NC3(CCC3)C(=O)N(C)[C@@H](C3CCCC3)C(=O)N(C)[C@H](C(=O)N(C)CC)CC(=O)N(C)[C@@H](CC3CCCC3)C(=O)N[C@@H]([C@@H](C)CC)C(=O)N(C)CC(=O)N(C)[C@H]3C/C=C\CCN(C3=O)[C@@H](Cc3ccc(C(F)(F)F)cc3)C(=O)N(C)CC(=O)N[C@@H](CCc3ccc(C(F)(F)F)c(OC)c3)C(=O)N2C1 [PP1573]	5.2	0.12					NRAS /KRAS [2, 7]: A (a compound having 10 or more and less than 20 is denoted as A); HRAS /KRAS (HRAS wild-type protein; [8]): A (a compound having 10 or more and less than 20 is denoted as A)
CCCN(C)C(=O)[C@@H]1CC(=O)N(C)[C@@H](COCC)C(=O)N[C@@H]([C@@H](C)CC)C(=O)N(C)CC(=O)N(C)[C@H]2C/C=C\CCN(C2=O)[C@@H](Cc2ccc(C(F)(F)F)cc2)C(=O)N(C)CC(=O)N[C@@H](CCc2ccc(C(F)(F)F)c(OC)c2)C(=O)N2C[C@@H](C)C[C@H]2C(=O)NC2(CCC2)C(=O)N(C)[C@@H](C2CCCC2)C(=O)N1C [PP2025]	13.4	0.061			A (a compound having 10 or more and less than 20 is denoted as A)	B (a compound having 3 or more and less than 10 is denoted as B)	
CC[C@H](C)[C@@H]1NC(=O)[C@H](CC(C)C)N(C)C(=O)C[C@@H](C(=O)N2CCOCC2)N(C)C(=O)[C@H](C2CCCC2)N(C)C(=O)[C@](C)(CC)NC(=O)[C@@H]2CCCN2C(=O)[C@H](CCc2cc(F)c(C(F)(F)F)c(F)c2)NC(=O)CN(C)C(=O)[C@H](Cc2ccc(C(F)(F)F)cc2)N2CCCCC[C@@H](C2=O)N(C)C(=O)CN(C)C1=O [PP0500]	963	18			B (a compound having 3 or more and less than 10 is denoted as B)	B (a compound having 3 or more and less than 10 is denoted as B)	
CCO[C@@H]1C[C@H]2C(=O)NC3(CCC3)C(=O)N(C)[C@@H](C3CCCC3)C(=O)N(C)[C@H](C(=O)N(C)C)CC(=O)N(C)[C@@H](CC)C(=O)N[C@@H]([C@@H](C)CC)C(=O)N(C)CC(=O)N(C)[C@H]3CC(C)=C(C)CN(C3=O)[C@@H](Cc3ccc(C(F)(F)F)cc3)C(=O)N(C)CC(=O)N[C@@H](CCc3cc(F)c(C(F)(F)F)c(F)c3)C(=O)N2C1 [PP1048]	134		C (A compound having a KD ratio of 0.1 or more and less than 3 is denoted as C)	C (A compound having a KD ratio of 0.1 or more and less than 3 is denoted as C)			Kd ([1]; Single Cycle Kinetics): 0.49 nM

Further lines, with some results ahead:

IC50 [3] [nM]	Kd [1, 6] [nM]	Structure (SMILES)	NRAS /KRAS [2, 4]	HRAS /KRAS (HRAS wild-type protein; [5])	NRAS /KRAS [2, 9]	HRAS /KRAS (HRAS wild-type protein; [10])	also measured
136		CCC[C@H]1C(=O)N[C@@H]([C@@H](C)CC)C(=O)N(C)CC(=O)N(C)[C@H]2C/C=C\CCN(C2=O)[C@@H](Cc2ccc(C)cc2)C(=O)N(C)CC(=O)N[C@@H](CCc2ccc(Cl)c(Cl)c2)C(=O)N2C[C@H](OCC)C[C@H]2C(=O)NC2(CC(C)(C)C2)C(=O)N(C)[C@@H](CC2CC2)C(=O)N(C)[C@H](C(=O)N(C)C)CC(=O)N1C [PP2799]	A (a compound having 10 or more and less than 20 is denoted as A)	A (a compound having 10 or more and less than 20 is denoted as A)			Kd ([1]; 1:1 binding model): 1.2 nM
286		CCO[C@@H]1C[C@H]2C(=O)NC3(CCC3)C(=O)N(C)[C@@H](C3CCCC3)C(=O)N(C)[C@H](C(=O)N(C)C)CC(=O)N(CC)[C@@H](CC(C)C)C(=O)N[C@@H]([C@@H](C)CC)C(=O)N(C)CC(=O)N(C)[C@H]3CC(C)=C(C)CN(C3=O)[C@@H](Cc3ccc(C(F)(F)F)cc3)C(=O)N(C)CC(=O)N[C@@H](CCc3cc(F)c(C(F)(F)F)c(F)c3)C(=O)N2C1 [PP1051]	C (A compound having a KD ratio of 0.1 or more and less than 3 is denoted as C)	C (A compound having a KD ratio of 0.1 or more and less than 3 is denoted as C)			Kd ([1]; Single Cycle Kinetics): 1.8 nM
5.3	0.16	CCO[C@@H]1C[C@H]2C(=O)NC3(CCC3)C(=O)N(C)[C@@H](C3CCCC3)C(=O)N(C)[C@H](C(=O)N(CC)CC)CC(=O)N(C)[C@@H](CC(F)F)C(=O)N[C@@H]([C@@H](C)CC)C(=O)N(C)CC(=O)N(C)[C@H]3C/C=C\CCN(C3=O)[C@@H](Cc3ccc(C(F)(F)F)cc3)C(=O)N(C)CC(=O)N[C@@H](CCc3cc(F)c(C(F)(F)F)c(F)c3)C(=O)N2C1 [PP1309]					NRAS /KRAS ([2]; ratio of KD with respect to GDP-bound NRAS wild-type protein to KD with respect to KRAS): A (a compound having 10 or more and less than 20 is denoted as A); HRAS /KRAS (HRAS wild-type protein; ratio of KD with respect to HRAS wild-type protein to KD with respect to KRAS): A (a compound having 10 or more and less than 20 is denoted as A)
45	1.1	CCO[C@@H]1C[C@H]2C(=O)NC3(CCC3)C(=O)N(C)[C@@H](C3CCCC3)C(=O)N(C)[C@H](C(=O)N3CCOCC3)CC(=O)N(C)[C@@H](CC(C)(C)C)C(=O)N[C@@H]([C@@H](C)CC)C(=O)N(C)CC(=O)N(C)[C@H]3CCCCCN(C3=O)[C@@H](Cc3ccc(C(F)(F)F)cc3)C(=O)N(C)CC(=O)N[C@@H](CCc3cc(F)c(C(F)(F)F)c(F)c3)C(=O)N2C1 [PP0684]			B (a compound having 3 or more and less than 10 is denoted as B)	B (a compound having 3 or more and less than 10 is denoted as B)	
22.8		CCC(CC)[C@H]1C(=O)N(C)[C@H](C(=O)N(C)C)CC(=O)N(C)[C@@H](COC)C(=O)N[C@@H]([C@@H](C)CC)C(=O)N(C)CC(=O)N(C)[C@H]2C/C=C\CCN(C2=O)[C@@H](Cc2ccc(C)cc2)C(=O)N(C)CC(=O)N[C@@H](CCc2ccc(Cl)c(Cl)c2)C(=O)N2C[C@H](OC3CCC3)C[C@H]2C(=O)N(C)C2(CC(C)(C)C2)C(=O)N1C [PP2816]	AA (a compound having 20 or more is denoted as AA)	A (a compound having 10 or more and less than 20 is denoted as A)			Kd ([1]; 1:1 binding model): 0.39 nM
18.9	0.069	CCCN(C)C(=O)[C@@H]1CC(=O)N(C)[C@@H](CCOC)C(=O)N[C@@H]([C@@H](C)CC)C(=O)N(C)CC(=O)N(C)[C@H]2C/C=C\CCN(C2=O)[C@@H](Cc2ccc(C(F)(F)F)cc2)C(=O)N(C)CC(=O)N[C@@H](CCc2ccc(C(F)(F)F)c(OC)c2)C(=O)N2C[C@@H](C)C[C@H]2C(=O)NC2(CCC2)C(=O)N(C)[C@@H](C2CCCC2)C(=O)N1C [PP2029]			A (a compound having 10 or more and less than 20 is denoted as A)	B (a compound having 3 or more and less than 10 is denoted as B)	
